# Data published in patent US8029799B2, “Use of thymosin alpha 1 for preparing a medicament for the treatment of stage IV malignant melanoma” (SciClone Pharmaceuticals, Inc., priority 2006, dated 2011).
# Ends that are not written are not given here.
# What was measured:
# [1] = system: lymphosarcoma cells; settings: BALB/c mice; cited from earlier work
# [2] = system: methylcholanthrene-induced fibrosarcoma; settings: mice with methylcholanthrene-induced fibrosarcoma; cited from earlier work
# [3] = system: human non-small cell lung cancer (NSCLC) cells; settings: 1 or 10 mg per day subcutaneous; nude mice inoculated with human NSCLC cells; cited from earlier work
# [4] = system: Stage IV Melanoma Characterized by Distant Unresectable Metastases; assay: Phase II clinical trial, tumor response (RECIST) in stage IV melanoma patients; assay type: in vivo, human; settings: preliminary analysis on 142 patients; higher doses of Tα1
# Description: Trial Design phase II, randomized, stratified, open-study testing different doses of Tα1 in association with DTIC and IFNα, as first line therapy for stage IV melanoma patients characterized by distant unresectable metastases (AJCC; Journal of Clinical Oncology 2001, 19: 3635-3648) without brain metastases. The primary study end-point was tumor response, and the following combination composition were used: • DTIC (800 mg/m^2)+IFNα (3 MIU)+Tα1 (1.6 mg) (97 pts); • DTIC (800 mg/m^2)+IFNα (3 MIU)+Tα1 (3.2 mg) (97 pts); • DTIC (800 mg/m^2)+Tα1 (3.2 mg) (98 pts); • DTIC (800 mg/m^2)+IFNα (3 MIU) (94 pts);
# The five groups were analyzed independently one another within the so-called “pick the winner” strategy.
# Methods: Recycling every 28 days, patients were administered DTIC (800 mg/m^2) i.v. at day 1, Tα1 (1.6, 3.2 or 6.4 mg) s.c. at days 8-11 and 15-18, and IFNα (3 MIU) s.c. at day 11 and 18. Clinical response was evaluated every two cycles according to RECIST criteria (New Guidelines to Evaluate the Response to Treatment in Solid Tumors; Journal of the National Cancer Institute, 2000. 92: 205-216) utilizing a central reader.
# The randomized patients were stratified according to the disease site: M1a, M1b or M1c level.
# 1) Patients with cutaneous, subcutaneous and/or limphnodal metastases with normal serum LDH value (from 96 to 460 U/L) were classified as M1a. […]
substance,measurement,setting,value
"thymosin alpha 1 (SDAAVDTSSEITTKDLKEKKEVVEEAEN; ends and bridges not checked; UniProt P06454 2-29, looked up) [a compound well known in the medical field]",liver and lung metastases of lymphosarcoma cells,[1],significantly reduced
same,local sarcoma growth,[1],significantly reduced
same,pulmonary metastases,[2],reduced
same,tumor volume,[3],significantly decreased
same,dose-response effect,[4],clear dose-response effect
